According to ChEMBL document CHEMBL3407349, “The discovery of Polo-like kinase 4 inhibitors: identification of (1R,2S).2-(3-((E).4-(((cis).2,6-dimethylmorpholino)methyl)styryl). 1H.indazol-6-yl)-5'-methoxyspiro[cyclopropane-1,3'-indolin]-2'-one (CFI-400945) as a potent, orally active antitumor agent” (J Med Chem, 2015):

Legend:
[1] = Half life in dog liver microsomes
[2] = AUC(infinity) in beagle dog at 1 mg/kg, iv; format: ADME, organism-based, Canis lupus familiaris; parameters: time infinity, dose 1 mg/kg, route intravenous; details: plasma
[3] = Antitumor activity against human SW620 cells xenografted in CB-17 SCID mouse assessed as tumor growth inhibition at 9.4 mg/kg, po qd administered for 21 days; format: functional; details: SW-620, 504 h, read-out: TGI
[4] = Growth inhibition of human HCT116 cells after 5 days by SRB assay; format: functional; details: HCT-116, 120 h
[5] = Growth inhibition of human CAL51 cells after 5 days by SRB assay; format: functional; details: CAL-51, 120 h
SW-620 = experiment: Growth inhibition of human SW620 cells after 5 days by SRB assay; format: functional; details: SW-620, 120 h
MDA-MB-231 = experiment: Growth inhibition of human MDA-MB-231 cells after 5 days by SRB assay; format: functional; details: Homo sapiens, MDA-MB-231, 120 h
[6] = Toxicity in po dosed athymic CD-1 nude mouse xenografted with human HCT116 cells administered qd 1-on/3-off schedule up to day 21; format: organism-based, HCT-116; details: CD-1 athymic nude, in vivo
Cytochrome P450 2D6 = Cytochrome P450 2D6 (Homo sapiens, UniProt P10635); experiment: Inhibition of CYP2D6 (unknown origin) by fluorescence assay; format: ADME
[7] = Antitumor activity against human HCT116 cells xenografted in athymic CD-1 nude mouse assessed as tumor growth inhibition at MTD, po qd administered 1-on/3-off schedule up to day 21; format: functional, HCT-116
[8] = Antitumor activity against human SW620 cells xenografted in CB-17 SCID mouse assessed as tumor growth inhibition at 3 mg/kg, po qd administered for 21 days; format: functional; details: SW-620, 504 h, read-out: TGI
[9] = Growth inhibition of human SKBR3 cells after 5 days by SRB assay; format: functional; details: SK-BR-3, 120 h
[10] = AUC(infinity) in Sprague-Dawley rat at 1 mg/kg, iv; format: ADME, organism-based; parameters: time infinity, dose 1 mg/kg, route intravenous; details: plasma
[11] = Growth inhibition of human OVCAR3 cells after 5 days by SRB assay; format: functional; details: OVCAR-3, 120 h
Cytochrome P450 3A4 [12] = target: T1, Cytochrome P450 3A4 (Homo sapiens, UniProt P08684); experiment: Inhibition of CYP3A4 (unknown origin) using DBF as substrate by fluorescence assay
[13] = Half life in human liver microsomes
A549 [14] = experiment: Antitumor activity against human A549 cells xenografted in CB-17 SCID mouse assessed as tumor growth inhibition at 3 mg/kg, po qd administered for 21 days; format: functional; details: A549, 504 h, read-out: TGI
[15] = Oral bioavailability in beagle dog at 5 mg/kg; format: ADME, organism-based, Canis lupus familiaris; details: in vivo
Cytochrome P450 3A4 [16] = target: T1, Cytochrome P450 3A4; experiment: Inhibition of CYP3A4 (unknown origin) using BFC as substrate by fluorescence assay
[17] = Half life in mouse liver microsomes
Cytochrome P450 1A2 = target: T2, Cytochrome P450 1A2 (Homo sapiens, UniProt P05177); experiment: Inhibition of CYP1A2 (unknown origin) by fluorescence assay; format: ADME
T2 sequence (P05177 whole entry): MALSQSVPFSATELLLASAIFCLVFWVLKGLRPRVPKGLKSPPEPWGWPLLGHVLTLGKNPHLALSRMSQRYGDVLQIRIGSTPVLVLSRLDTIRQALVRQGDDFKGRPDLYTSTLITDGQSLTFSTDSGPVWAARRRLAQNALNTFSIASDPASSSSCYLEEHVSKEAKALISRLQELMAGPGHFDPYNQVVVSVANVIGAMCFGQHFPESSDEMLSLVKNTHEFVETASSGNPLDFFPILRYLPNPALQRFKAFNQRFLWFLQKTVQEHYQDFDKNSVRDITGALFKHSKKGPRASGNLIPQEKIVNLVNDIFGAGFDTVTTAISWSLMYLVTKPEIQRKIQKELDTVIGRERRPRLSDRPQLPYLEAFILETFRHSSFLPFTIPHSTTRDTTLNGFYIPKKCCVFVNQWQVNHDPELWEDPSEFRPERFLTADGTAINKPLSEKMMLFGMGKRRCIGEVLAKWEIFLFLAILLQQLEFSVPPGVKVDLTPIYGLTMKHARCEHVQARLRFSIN

[18] = Cmax in athymic CD1 nude mouse at 25 mg/kg, po by LC/MS/MS analysis; format: ADME, organism-based; parameters: dose 25 mg/kg, route oral; details: in vivo
[19] = AUC(infinity) in beagle dog at 5 mg/kg, po; format: ADME, organism-based, Canis lupus familiaris; parameters: time infinity, dose 5 mg/kg, route oral; details: plasma
MCF7 = experiment: Growth inhibition of human MCF7 cells after 5 days by SRB assay; format: functional; details: Homo sapiens, MCF7, 120 h
[20] = AUC in athymic CD1 nude mouse at 25 mg/kg, po by LC/MS/MS analysis; format: ADME, organism-based; parameters: dose 25 mg/kg, route oral; details: plasma
Cytochrome P450 2C19 = Cytochrome P450 2C19 (Homo sapiens, UniProt P33261); experiment: Inhibition of CYP2C19 (unknown origin) by fluorescence assay
MDA-MB-468 [21] = experiment: Antitumor activity against human MDA-MB-468 cells xenografted in CB-17 SCID mouse assessed as tumor growth inhibition at 9.4 mg/kg, po qd administered for 21 days; format: functional; details: MDA-MB-468, 504 h, read-out: TGI
Cytochrome P450 2C9 = Cytochrome P450 2C9 (Homo sapiens, UniProt P11712); experiment: Inhibition of CYP2C9 (unknown origin) by fluorescence assay
[22] = Growth inhibition of human HMEC cells after 5 days by SRB assay; format: cell-based; details: HMEC cells
HCC1954 = experiment: Growth inhibition of human HCC1954 cells after 5 days by SRB assay; format: functional; details: Homo sapiens, HCC1954, 120 h
A549 [23] = experiment: Growth inhibition of human A549 cells after 5 days by SRB assay; format: functional; details: A549, 120 h
[24] = Half life in rat liver microsomes
[25] = Half life in beagle dog at 1 mg/kg, iv; format: ADME, organism-based, Canis lupus familiaris; parameters: dose 1 mg/kg, route intravenous; details: in vivo
[26] = Growth inhibition of human BT20 cells after 5 days by SRB assay; format: functional; details: BT-20, 120 h
MDA-MB-468 [27] = experiment: Antitumor activity against human MDA-MB-468 cells xenografted in CB-17 SCID mouse assessed as tumor growth inhibition at 3 mg/kg, po qd administered for 21 days; format: functional; details: MDA-MB-468, 504 h, read-out: TGI
[28] = Half life in Sprague-Dawley rat at 1 mg/kg, iv; format: ADME, organism-based; parameters: dose 1 mg/kg, route intravenous; details: in vivo
[29] = AUC(infinity) in Sprague-Dawley rat at 5 mg/kg, po; format: ADME, organism-based; parameters: dose 5 mg/kg, route oral, time infinity; details: plasma
[30] = Growth inhibition of human COLO205 cells after 5 days by SRB assay; format: functional; details: COLO 205, 120 h
MDA-MB-468 [31] = experiment: Growth inhibition of human MDA-MB-468 cells after 5 days by SRB assay; format: functional; details: Homo sapiens, MDA-MB-468, 120 h
[32] = Oral bioavailability in Sprague-Dawley rat at 5 mg/kg; format: ADME, organism-based; details: in vivo
Mus musculus [33] = experiment: Toxicity in CB-17 SCID mouse xenografted with human A549 cells assessed as death at 9.4 mg/kg, po qd administered for 21 days; format: organism-based; parameters: dose 9.4 mg/kg, route oral; details: in vivo, 504 h
Rattus norvegicus = experiment: Clearance in Sprague-Dawley rat at 1 mg/kg, iv; format: ADME, organism-based; parameters: dose 1 mg/kg, route intravenous; details: in vivo
Mus musculus [34] = experiment: Toxicity in CB-17 SCID mouse xenografted with human MDA-MB-468 cells assessed as loss in body weight at 3 to 9.4 mg/kg, po qd administered for 21 days relative to control; format: organism-based; parameters: dose 3-9.4 mg/kg, route oral; details: in vivo, 504 h
Angiopoietin-1 receptor [35] = target: T3, Angiopoietin-1 receptor (Homo sapiens, UniProt Q02763); experiment: Inhibition of TIE2 (unknown origin) by cell-based assay
Angiopoietin-1 receptor [36] = target: T3, Angiopoietin-1 receptor; experiment: Inhibition of TIE2 (unknown origin) by FRET analysis
Canis familiaris = experiment: Clearance in beagle dog at 1 mg/kg, iv; format: ADME, organism-based, Canis lupus familiaris; parameters: dose 1 mg/kg, route intravenous; details: in vivo
[37] = Antitumor activity against human HCT116 cells xenografted in athymic CD-1 nude mouse assessed as tumor growth inhibition at MTD, po qd administered 1-on/3-off schedule up to day 21 measured on day 35; format: functional, HCT-116
Mus musculus [38] = experiment: Toxicity in CB-17 SCID mouse xenografted with human MDA-MB-468 cells assessed as mortality at 3 to 9.4 mg/kg, po qd administered for 21 days; format: organism-based; parameters: dose 3-9.4 mg/kg, route oral; details: in vivo, 504 h
A549 [39] = experiment: Antitumor activity against human A549 cells xenografted in CB-17 SCID mouse assessed as tumor growth inhibition at 9.4 mg/kg, po qd administered for 21 days; format: functional; details: A549, 504 h, read-out: TGI

Cytochrome P450 2D6, sequence (P10635 whole entry): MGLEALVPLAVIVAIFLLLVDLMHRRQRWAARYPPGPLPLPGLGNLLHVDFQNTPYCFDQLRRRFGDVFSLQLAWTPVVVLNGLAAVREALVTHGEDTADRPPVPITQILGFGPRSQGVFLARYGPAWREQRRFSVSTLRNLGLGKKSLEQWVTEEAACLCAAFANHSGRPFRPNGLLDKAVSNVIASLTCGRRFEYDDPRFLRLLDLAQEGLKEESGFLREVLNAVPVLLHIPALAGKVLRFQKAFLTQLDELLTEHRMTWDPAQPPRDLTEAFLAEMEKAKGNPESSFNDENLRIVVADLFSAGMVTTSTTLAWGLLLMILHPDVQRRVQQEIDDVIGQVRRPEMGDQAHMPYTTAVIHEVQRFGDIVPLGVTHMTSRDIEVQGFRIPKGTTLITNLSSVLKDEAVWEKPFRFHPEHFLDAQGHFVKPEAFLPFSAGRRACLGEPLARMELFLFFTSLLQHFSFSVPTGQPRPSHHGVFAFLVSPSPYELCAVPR
T3 sequence (Q02763 whole entry): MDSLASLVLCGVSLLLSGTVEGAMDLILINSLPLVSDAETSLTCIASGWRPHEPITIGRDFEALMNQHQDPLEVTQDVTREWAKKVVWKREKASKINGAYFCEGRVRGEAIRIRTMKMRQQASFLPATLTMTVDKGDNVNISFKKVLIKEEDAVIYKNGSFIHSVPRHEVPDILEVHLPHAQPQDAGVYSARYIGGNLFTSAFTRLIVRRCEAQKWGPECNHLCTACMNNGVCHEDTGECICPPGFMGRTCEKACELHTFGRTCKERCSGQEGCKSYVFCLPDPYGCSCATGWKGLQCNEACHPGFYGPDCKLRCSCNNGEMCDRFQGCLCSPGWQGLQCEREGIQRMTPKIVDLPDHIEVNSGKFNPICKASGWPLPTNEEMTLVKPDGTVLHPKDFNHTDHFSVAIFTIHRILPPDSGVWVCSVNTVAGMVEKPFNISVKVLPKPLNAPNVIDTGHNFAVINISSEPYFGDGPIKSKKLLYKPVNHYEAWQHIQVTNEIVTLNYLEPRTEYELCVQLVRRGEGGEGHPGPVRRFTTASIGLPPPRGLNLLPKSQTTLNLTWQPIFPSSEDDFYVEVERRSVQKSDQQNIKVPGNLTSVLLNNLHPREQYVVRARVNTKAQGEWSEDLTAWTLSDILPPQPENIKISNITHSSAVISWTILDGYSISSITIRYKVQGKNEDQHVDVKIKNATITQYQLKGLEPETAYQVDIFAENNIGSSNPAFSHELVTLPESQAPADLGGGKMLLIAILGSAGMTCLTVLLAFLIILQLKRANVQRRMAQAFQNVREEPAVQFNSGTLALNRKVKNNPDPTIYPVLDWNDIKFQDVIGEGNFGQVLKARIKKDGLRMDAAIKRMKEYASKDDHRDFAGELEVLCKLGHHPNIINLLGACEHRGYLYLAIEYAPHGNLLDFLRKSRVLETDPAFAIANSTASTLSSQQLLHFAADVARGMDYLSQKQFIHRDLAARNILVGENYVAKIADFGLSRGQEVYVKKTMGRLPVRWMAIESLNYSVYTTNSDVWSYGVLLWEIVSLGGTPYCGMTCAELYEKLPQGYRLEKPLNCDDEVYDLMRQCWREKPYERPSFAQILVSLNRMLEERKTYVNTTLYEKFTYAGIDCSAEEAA
Cytochrome P450 2C9, sequence (P11712 whole entry): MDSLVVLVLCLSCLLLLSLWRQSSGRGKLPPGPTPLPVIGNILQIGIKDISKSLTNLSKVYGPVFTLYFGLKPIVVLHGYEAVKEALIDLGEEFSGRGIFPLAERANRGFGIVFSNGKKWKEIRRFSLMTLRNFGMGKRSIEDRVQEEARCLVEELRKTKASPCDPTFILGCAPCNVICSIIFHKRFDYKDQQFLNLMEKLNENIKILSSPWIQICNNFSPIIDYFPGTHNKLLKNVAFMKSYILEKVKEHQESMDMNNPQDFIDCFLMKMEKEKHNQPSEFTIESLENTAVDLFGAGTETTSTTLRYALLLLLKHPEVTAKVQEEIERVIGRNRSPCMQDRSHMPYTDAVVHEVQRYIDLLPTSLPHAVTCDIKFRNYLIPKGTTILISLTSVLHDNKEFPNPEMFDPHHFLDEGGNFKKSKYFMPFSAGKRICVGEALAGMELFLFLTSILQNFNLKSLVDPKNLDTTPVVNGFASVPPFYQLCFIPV
Cytochrome P450 2C19, sequence (P33261 whole entry): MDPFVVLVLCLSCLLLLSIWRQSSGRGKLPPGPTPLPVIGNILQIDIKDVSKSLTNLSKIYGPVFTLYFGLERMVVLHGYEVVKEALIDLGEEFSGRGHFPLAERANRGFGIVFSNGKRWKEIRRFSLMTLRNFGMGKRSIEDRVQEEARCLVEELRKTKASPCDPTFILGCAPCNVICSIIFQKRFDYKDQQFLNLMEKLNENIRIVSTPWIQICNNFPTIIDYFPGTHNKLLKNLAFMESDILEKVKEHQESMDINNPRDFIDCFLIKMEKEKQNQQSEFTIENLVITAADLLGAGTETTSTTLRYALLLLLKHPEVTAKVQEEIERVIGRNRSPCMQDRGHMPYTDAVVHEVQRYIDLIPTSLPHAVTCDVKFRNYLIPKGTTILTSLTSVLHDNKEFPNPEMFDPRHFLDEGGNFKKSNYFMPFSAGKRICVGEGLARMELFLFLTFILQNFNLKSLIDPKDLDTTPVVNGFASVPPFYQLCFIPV
T1 sequence (P08684 whole entry): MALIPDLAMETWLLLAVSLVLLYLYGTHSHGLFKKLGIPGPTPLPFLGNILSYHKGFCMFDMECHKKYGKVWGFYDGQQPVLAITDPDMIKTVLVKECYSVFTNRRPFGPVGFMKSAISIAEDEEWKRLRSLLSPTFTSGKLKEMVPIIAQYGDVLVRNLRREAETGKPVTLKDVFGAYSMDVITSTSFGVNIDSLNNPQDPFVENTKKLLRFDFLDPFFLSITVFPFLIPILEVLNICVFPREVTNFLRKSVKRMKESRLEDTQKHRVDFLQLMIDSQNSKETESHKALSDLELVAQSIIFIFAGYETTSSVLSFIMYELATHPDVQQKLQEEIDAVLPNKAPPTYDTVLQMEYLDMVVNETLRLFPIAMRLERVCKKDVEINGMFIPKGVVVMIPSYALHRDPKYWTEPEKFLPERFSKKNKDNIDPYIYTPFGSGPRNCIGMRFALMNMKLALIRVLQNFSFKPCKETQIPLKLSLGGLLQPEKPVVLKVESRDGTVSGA

COc1ccc2c(c1)[C@]1(C[C@H]1c1ccc3c(/C=C/c4ccc(CN5CCOCC5)cc4)n[nH]c3c1)C(=O)N2C
half-life ([1]; microsomes): 13 min
AUC(0-inf) [2]: 648 ng·h/mL
inhibition in vivo at 9.4 mg/kg [3]: 77%
GI50 [4]: 0.005 µM
GI50 [5]: 0.11 µM
GI50 (SW-620): 0.6 µM
GI50 (MDA-MB-231): 20 µM
MTD at 21 days [6]: 39 mg/kg
inhibition (INH) (Cytochrome P450 2D6): Not Active
TGI [7]: 90%
inhibition in vivo at 3 mg/kg [8]: 47%
GI50 [9]: 6.5 µM
AUC(0-inf) [10]: 553 ng·h/mL
GI50 [11]: 0.007 µM
IC50 (Cytochrome P450 3A4 [12]): 6 µM
half-life ([13]; microsomes): 37 min
inhibition in vivo at 3 mg/kg (A549 [14]): 46%
bioavailability [15]: 32%
IC50 (Cytochrome P450 3A4 [16]): 20 µM
half-life ([17]; microsomes): 24 min
inhibition (INH) (Cytochrome P450 1A2): Not Active
Cmax [18]: 5900 ng/mL
AUC(0-inf) [19]: 1030 ng·h/mL
GI50 (MCF7): < 0.01 µM
AUC [20]: 17000 ng·h/mL
IC50 (Cytochrome P450 2C19): 1 µM
inhibition in vivo at 9.4 mg/kg (MDA-MB-468 [21]): 96%
IC50 (Cytochrome P450 2C9): 1 µM
GI50 at 120 h [22]: > 30 µM
GI50 (HCC1954): < 0.01 µM
GI50 (A549 [23]): 0.004 µM
half-life ([24]; microsomes): 6.4 min
half-life [25]: 180 min
GI50 [26]: 0.055 µM
inhibition in vivo at 3 mg/kg (MDA-MB-468 [27]): 61%
half-life [28]: 78 min
AUC(0-inf) [29]: 688 ng·h/mL
GI50 [30]: 0.007 µM
GI50 (MDA-MB-468 [31]): < 0.01 µM
bioavailability [32]: 25%
Activity (Mus musculus [33]): Toxic

COc1ccc2c(c1)[C@]1(C[C@H]1c1ccc3c(/C=C/c4ccc(CN5C[C@@H](C)O[C@@H](C)C5)cc4)n[nH]c3c1)C(=O)N2 [OCIFISERTIB]
half-life ([1]; liver microsomes): 43 min
clearance (Rattus norvegicus): 31.7 mL/min/kg
AUC(0-inf) [2]: 1050 ng·h/mL
inhibition in vivo at 9.4 mg/kg [3]: 86%
GI50 [4]: 0.004 µM
GI50 [5]: 0.26 µM
GI50 (SW-620): 0.38 µM
GI50 (MDA-MB-231): 8.6 µM
MTD at 21 days [6]: 39 mg/kg
inhibition (INH) (Cytochrome P450 2D6): Not Active
TGI [7]: 98%
inhibition in vivo at 3 mg/kg [8]: 7%
GI50 [9]: 5.3 µM
AUC(0-inf) [10]: 534 ng·h/mL
GI50 [11]: 0.018 µM
half-life ([13]; liver microsomes): > 60 min
inhibition in vivo at 3 mg/kg (A549 [14]): 32%
Activity (Mus musculus [34]): > 20%
bioavailability [15]: 66%
half-life ([17]; liver microsomes): 24 min
inhibition (INH) (Cytochrome P450 1A2): Not Active
Cmax [18]: 2200 ng/mL
AUC(0-inf) [19]: 3460 ng·h/mL
GI50 (MCF7): 0.008 µM
AUC [20]: 9800 ng·h/mL
IC50 (Cytochrome P450 2C19): 1.4 µM
inhibition in vivo at 9.4 mg/kg (MDA-MB-468 [21]): 77%
EC50 (Angiopoietin-1 receptor [35]): 0.117 µM
IC50 (Angiopoietin-1 receptor [36]): 0.022 µM
IC50 (Cytochrome P450 2C9): 0.94 µM
GI50 at 120 h [22]: 9 µM
GI50 (HCC1954): 0.005 µM
clearance (Canis familiaris): 16 mL/min/kg
GI50 (A549 [23]): 0.005 µM
half-life ([24]; liver microsomes): 53 min
half-life [25]: 126 min
GI50 [26]: 0.058 µM
inhibition in vivo at 3 mg/kg (MDA-MB-468 [27]): 57%
TGI [37]: 93%
half-life [28]: 120 min
Activity (Mus musculus [38]): Non-toxic
AUC(0-inf) [29]: 767 ng·h/mL
inhibition in vivo at 9.4 mg/kg (A549 [39]): 70%
GI50 [30]: 0.017 µM
GI50 (MDA-MB-468 [31]): 0.006 µM
bioavailability [32]: 21%
